The values that follow come from US20130040944A1, “MGLUR4 ALLOSTERIC POTENTIATORS, COMPOSITIONS, AND METHODS OF TREATING NEUROLOGICAL DYSFUNCTION” (VANDERBILT UNIVERSITY, priority 2009, published 2013).

The target of this experiment is human mGluR4 (Homo sapiens, UniProt Q14833). As to the kind of experiment: potentiation of human mGluR4 in transfected CHO cells, Ca2+-sensitive dye fluorescence, EC20 agonist. The note with it: hEC50, human mGluR4 potentiation; unit inferred.
Sequence of human mGluR4 (Q14833 33-912): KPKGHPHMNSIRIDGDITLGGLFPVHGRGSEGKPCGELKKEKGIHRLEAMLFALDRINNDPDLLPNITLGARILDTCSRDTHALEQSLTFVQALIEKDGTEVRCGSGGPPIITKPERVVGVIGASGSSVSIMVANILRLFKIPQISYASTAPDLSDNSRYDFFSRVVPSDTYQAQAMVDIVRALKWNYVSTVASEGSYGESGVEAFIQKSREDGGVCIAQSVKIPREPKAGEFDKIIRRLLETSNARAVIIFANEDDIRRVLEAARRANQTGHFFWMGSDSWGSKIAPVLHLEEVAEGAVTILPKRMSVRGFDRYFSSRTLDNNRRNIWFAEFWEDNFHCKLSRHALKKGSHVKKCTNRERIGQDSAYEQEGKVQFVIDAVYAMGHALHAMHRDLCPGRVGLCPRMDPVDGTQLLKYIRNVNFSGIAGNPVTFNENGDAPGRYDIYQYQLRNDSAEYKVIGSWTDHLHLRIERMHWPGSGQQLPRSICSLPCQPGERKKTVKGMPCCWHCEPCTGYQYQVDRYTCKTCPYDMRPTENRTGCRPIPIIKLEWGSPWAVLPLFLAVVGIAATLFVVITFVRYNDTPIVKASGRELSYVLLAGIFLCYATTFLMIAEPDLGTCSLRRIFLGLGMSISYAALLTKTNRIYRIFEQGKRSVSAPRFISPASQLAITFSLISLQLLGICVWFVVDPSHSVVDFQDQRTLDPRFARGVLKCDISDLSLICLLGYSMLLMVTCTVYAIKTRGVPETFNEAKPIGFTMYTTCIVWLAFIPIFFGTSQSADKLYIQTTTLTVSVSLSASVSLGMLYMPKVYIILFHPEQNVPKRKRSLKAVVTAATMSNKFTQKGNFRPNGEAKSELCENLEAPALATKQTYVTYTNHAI

On to `Cc1ccc(S(=O)(=O)n2ccc(NC(=O)c3ccccn3)c2)cc1Cl` [Example 112, N-(1-((3-chloro-4-methylphenyl)sulfonyl)-1H-pyrrol-3-yl)picolinamide], for which the EC50 – broadly, the concentration needed to bring the measured effect to its halfway point – is 129 nM.
Regarding `Cc1cc(S(=O)(=O)n2ccc(NC(=O)c3ccccn3)c2)c(F)cc1Cl` [Example 113, N-(1-((4-chloro-2-fluoro-5-methylphenyl)sulfonyl)-1H-pyrrol-3-yl)picolinamide], the EC50 was determined as 346 nM.
Under `Cc1cc(C)c(S(=O)(=O)n2ccc(NC(=O)c3ccccn3)c2)cc1Cl` [Example 114, N-(1-((5-chloro-2,4-dimethylphenyl)sulfonyl)-1H-pyrrol-3-yl)picolinamide] stands 22900 nM.
Consider `Cc1c(F)cccc1S(=O)(=O)n1ccc(NC(=O)c2ccccn2)c1` [Example 115, N-(1-((3-fluoro-2-methylphenyl)sulfonyl)-1H-pyrrol-3-yl)picolinamide], for which the EC50 was 393 nM.
Under `Cc1c(Cl)cccc1S(=O)(=O)n1ccc(NC(=O)c2ccccn2)c1` [Example 116, N-(1-((3-chloro-2-methylphenyl)sulfonyl)-1H-pyrrol-3-yl)picolinamide] stands 286 nM; under `O=C(Nc1ccn(S(=O)(=O)c2ccc(Cl)nc2)c1)c1ccccn1` [Example 118, N-(1-((6-chloropyridin-3-yl)sulfonyl)-1H-pyrrol-3-yl)picolinamide], 217 nM; under `O=C(Nc1ccn(S(=O)(=O)c2ccc(Cl)cn2)c1)c1ccccn1` [Example 121, N-(1-((5-chloropyridin-2-yl)sulfonyl)-1H-pyrrol-3-yl)picolinamide], 162 nM.
On to `CCc1ccc(S(=O)(=O)n2ccc(NC(=O)c3ccccn3)c2)cc1` [Example 122, N-(1-((4-ethylphenyl)sulfonyl)-1H-pyrrol-3-yl)picolinamide], for which the EC50 is 133 nM.
Turning to `O=C(Nc1ccn(S(=O)(=O)c2ccco2)c1)c1ccccn1` [Example 123, N-(1-(furan-2-ylsulfonyl)-1H-pyrrol-3-yl)picolinamide], the EC50 is 686 nM.
To `O=C(Nc1ccn(S(=O)(=O)c2cccc(Cl)c2F)c1)c1ccccn1` [Example 124, N-(1-((3-chloro-2-fluorophenyl)sulfonyl)-1H-pyrrol-3-yl)picolinamide] belongs 84 nM; to `O=C(Nc1ccn(S(=O)(=O)c2ccoc2)c1)c1ccccn1` [Example 125, N-(1-(furan-3-ylsulfonyl)-1H-pyrrol-3-yl)picolinamide], 1490 nM.
As for `O=C(Nc1ccn(S(=O)(=O)c2cc(F)c(F)c(F)c2)c1)c1ccccn1` [Example 126, N-(1-((3,4,5-trifluorophenyl)sulfonyl)-1H-pyrrol-3-yl)picolinamide], the EC50 stood at 276 nM.
`Cc1nc(C)c(S(=O)(=O)n2ccc(NC(=O)c3ccccn3)c2)s1` [Example 127, N-(1-((2,4-dimethylthiazol-5-yl)sulfonyl)-1H-pyrrol-3-yl)picolinamide]: the EC50 came to 2950 nM.
On to `O=C(Nc1ccn(S(=O)(=O)c2ccc(F)c(Cl)c2)c1)c1ccccn1` [Example 128, N-(1-((3-chloro-4-fluorophenyl)sulfonyl)-1H-pyrrol-3-yl)picolinamide], for which the EC50 turned out to be 640 nM.
On to `COc1ccc(S(=O)(=O)n2ccc(NC(=O)c3ccccn3)c2)cc1` [Example 129, N-(1-((4-methoxyphenyl)sulfonyl)-1H-pyrrol-3-yl)picolinamide], for which the EC50 worked out at 107 nM.
As for `N#Cc1ccc(S(=O)(=O)n2ccc(NC(=O)c3ccccn3)c2)cc1` [Example 130, N-(1-((4-cyanophenyl)sulfonyl)-1H-pyrrol-3-yl)picolinamide], the EC50 is 220 nM.
To `O=C(Nc1ccn(S(=O)(=O)c2ccc(Cl)s2)c1)c1ccccn1` [Example 131, N-(1-((5-chlorothiophen-2-yl)sulfonyl)-1H-pyrrol-3-yl)picolinamide] belongs 1040 nM; to `O=C(Nc1ccn(S(=O)(=O)c2ccsc2)c1)c1ccccn1` [Example 132, N-(1-(thiophen-3-ylsulfonyl)-1H-pyrrol-3-yl)picolinamide], 413 nM.
Consider `O=C(Nc1ccn(S(=O)(=O)c2ccc3c(c2)OCO3)c1)c1ccccn1` [Example 133, N-(1-(benzo[d][1,3]dioxol-5-ylsulfonyl)-1H-pyrrol-3-yl)picolinamide], for which the EC50 was found to be 110 nM.
In the case of `O=C(Nc1ccn(S(=O)(=O)c2cccs2)c1)c1ccccn1` [Example 134, N-(1-(thiophen-2-ylsulfonyl)-1H-pyrrol-3-yl)picolinamide], the half-maximal effective concentration (EC50) amounted to 80 nM.
To `Cc1ccc(S(=O)(=O)n2ccc(NC(=O)c3ccccn3)c2)s1` [Example 135, N-(1-((5-methylthiophen-2-yl)sulfonyl)-1H-pyrrol-3-yl)picolinamide] belongs 88.7 nM; to `O=C(Nc1ccn(S(=O)(=O)c2cnc3ccccc3c2)c1)c1ccccn1` [Example 136, N-(1-(quinolin-3-ylsulfonyl)-1H-pyrrol-3-yl)picolinamide], 253 nM.
Consider `O=C(Nc1ccn(S(=O)(=O)c2cccnc2Cl)c1)c1ccccn1` [Example 137, N-(1-((2-chloropyridin-3-yl)sulfonyl)-1H-pyrrol-3-yl)picolinamide], for which the EC50 is 3790 nM.
Regarding `O=C(Nc1ccn(S(=O)(=O)c2ccc(Cl)cc2F)c1)c1ccccn1` [Example 138, N-(1-((4-chloro-2-fluorophenyl)sulfonyl)-1H-pyrrol-3-yl)picolinamide], the EC50 is 243 nM.
`O=C(Nc1ccn(S(=O)(=O)c2ccc(F)c(F)c2F)c1)c1ccccn1` [Example 139, N-(1-((2,3,4-trifluorophenyl)sulfonyl)-1H-pyrrol-3-yl)picolinamide]: the EC50 is 301 nM.
For the compound `COc1ccc(S(=O)(=O)n2ccc(NC(=O)c3ccccn3)c2)cn1` [Example 140, N-(1-((6-methoxypyridin-3-yl)sulfonyl)-1H-pyrrol-3-yl)picolinamide], the EC50 came out at 116 nM.
As to `Cc1noc(C)c1S(=O)(=O)n1ccc(NC(=O)c2ccccn2)c1` [Example 141, N-(1-((3,5-dimethylisoxazol-4-yl)sulfonyl)-1H-pyrrol-3-yl)picolinamide], the EC50 is 8320 nM.
Turning to `Cn1cc(S(=O)(=O)n2ccc(NC(=O)c3ccccn3)c2)cn1` [Example 143, N-(1-((1-methyl-1H-pyrazol-4-yl)sulfonyl)-1H-pyrrol-3-yl)picolinamide], the EC50 worked out at 4790 nM.
As to `O=C(Nc1ccn(S(=O)(=O)c2ccc(N3CCOCC3)nc2)c1)c1ccccn1` [Example 144, N-(1-((6-morpholinopyridin-3-yl)sulfonyl)-1H-pyrrol-3-yl)picolinamide], the EC50 turned out to be 1070 nM.
For `CN1CCOc2cc(S(=O)(=O)n3ccc(NC(=O)c4ccccn4)c3)ccc21` [Example 146, N-(1-((4-methyl-3,4-dihydro-2H-benzo[b][1,4]oxazin-7-yl)sulfonyl)-1H-pyrrol-3-yl)picolinamide], the EC50 was determined as 144 nM.
For the compound `O=C(Nc1ccn(S(=O)(=O)c2ccc(CCl)cc2)c1)c1ccccn1` [Example 147, N-(1-((4-(chloromethyl)phenyl)sulfonyl)-1H-pyrrol-3-yl)picolinamide], the EC50 was 225 nM.
`O=C(Nc1ccn(S(=O)(=O)c2ccc3c(c2)OCCCO3)c1)c1ccccn1` [Example 148, N-(1-((3,4-dihydro-2H-benzo[b][1,4]dioxepin-7-yl)sulfonyl)-1H-pyrrol-3-yl)picolinamide]: the EC50 amounted to 41.1 nM.
For the compound `CC1(C)CCc2cc(S(=O)(=O)n3ccc(NC(=O)c4ccccn4)c3)ccc2O1` [Example 149, N-(1-((2,2-dimethylchroman-6-yl)sulfonyl)-1H-pyrrol-3-yl)picolinamide], the EC50 came to 351 nM.
For `O=C(Nc1ccn(S(=O)(=O)c2ccc3occc3c2)c1)c1ccccn1` [Example 150, N-(1-(benzofuran-5-ylsulfonyl)-1H-pyrrol-3-yl)picolinamide], the EC50 is 84.3 nM.
With `Cc1ccc(S(=O)(=O)n2cc(NC(=O)c3ccccn3)cc2C)cc1` [Example 151, N-(5-methyl-1-tosyl-1H-pyrrol-3-yl)picolinamide], the EC50 worked out at 3810 nM.
On to `O=C1CCc2ccc(S(=O)(=O)n3ccc(NC(=O)c4ccccn4)c3)cc2N1` [Example 152, N-(1-((2-oxo-1,2,3,4-tetrahydroquinolin-7-yl)sulfonyl)-1H-pyrrol-3-yl)picolinamide], for which the EC50 is 917 nM.
Take `COC(=O)c1ccc(S(=O)(=O)n2ccc(NC(=O)c3ccccn3)c2)cc1` [Example 153, Methyl 4-((3-(picolinamido)-1H-pyrrol-1-yl)sulfonyl)benzoate]: the EC50 was determined as 285 nM.
`O=C(Nc1ccn(S(=O)(=O)c2ccc(N3CCCC3=O)cc2)c1)c1ccccn1` [Example 154, N-(1-((4-(2-oxopyrrolidin-1-yl)phenyl)sulfonyl)-1H-pyrrol-3-yl)picolinamide]: the EC50 came to 543 nM.
Turning to `O=C(O)c1ccc(S(=O)(=O)n2ccc(NC(=O)c3ccccn3)c2)cc1` [Example 155, 4-((3-(picolinamido)-1H-pyrrol-1-yl)sulfonyl)benzoic acid], the EC50 is 6380 nM.
With `O=C(Nc1ccn(S(=O)(=O)c2ccc3c(c2)OCCO3)c1)c1ccccn1` [Example 156, N-(1-((2,3-dihydrobenzo[b][1,4]dioxin-6-yl)sulfonyl)-1H-pyrrol-3-yl)picolinamide], the EC50 was 45.3 nM.
Under `Cc1ccc(S(=O)(=O)c2cc(NC(=O)c3ccccn3)cn2C)cc1` [Example 157, N-(1-methyl-5-tosyl-1H-pyrrol-3-yl)picolinamide] stands 3680 nM; under `O=C(Nc1ccn(S(=O)(=O)c2ccc3[nH]c(=O)sc3c2)c1)c1ccccn1` [Example 158, N-(1-((2-oxo-2,3-dihydrobenzo[d]thiazol-6-yl)sulfonyl)-1H-pyrrol-3-yl)picolinamide], 550 nM; under `Cn1ccc(S(=O)(=O)n2ccc(NC(=O)c3ccccn3)c2)n1` [Example 159, N-(1-((1-methyl-1H-pyrazol-3-yl)sulfonyl)-1H-pyrrol-3-yl)picolinamide], 931 nM.
As for `O=C(Nc1ccn(S(=O)(=O)c2ccccn2)c1)c1ccccn1` [Example 160, N-(1-(pyridin-2-ylsulfonyl)-1H-pyrrol-3-yl)picolinamide], the EC50 came out at 1490 nM.
